Results taken from US12209142B2, “SARS-CoV-2 epitope-targeted peptide immunostimulants” (Institute for Systems Biology, priority 2020, dated 2025).
Entries after “also recorded” stand apart in the source; their conditions may differ. Bridges are numbered along the chain shown (N, C = ends). Where no end group is shown, it is not given here. [ ]: non-standard residue; d: D form. Lys(N3) = [N-]=[N+]=NCCCC[C@H](N)C(=O)O; Pra = C#CC[C@H](N)C(=O)O

Experiments:
[1] = test system: K. pneumoniae cells (strain BAA 2146); experiment: Flow cytometry of AR-PCC-driven opsonization by anti-DNP antibodies; format: cell-based, Klebsiella pneumoniae
[2] = test system: K. pneumoniae cells, BAA 1705 and BAA 2146; experiment: Whole-cell ELISA of anti-DNP recruitment to bacterial cell surfaces; format: cell-based, Klebsiella pneumoniae; conditions: AR-PCC plus anti-DNP; cy(LLFFF)-DNP 5 or 10 μM, cy(HNGPT)-DNP 50 and 100 μM
Text: FIG. 12 is a plot of 450 nm absorbances obtained from a cell-based ELISA assay conducted on two strains of K. pneumoniae cells, BAA 1705 (black) and BAA 2146 (grey), that were either untreated or opsonized by EPIs (AR-PCCs) and/or antibodies. […] This establishes EPI-driven opsonization by cy(LLFFF)-DNP (SEQ ID NO:5). […] This indicates opsonization by cy(LLFFF)-DNP (SEQ ID NO:5) is specific and is driven by the ligand cy(LLFFF) (SEQ ID NO:5), rather than the Lys(DNP) moiety.
The protocol for detecting anti-DNP recruitment to bacterial cell surfaces is as follows. […] After washing, bacteria were incubated with HRP conjugated secondary antibody (Bio-Rad) at a dilution of 1:10,000 for 1 h at 37° C. Unbound antibody was washed off by using PBS-BSA and the cells were then developed by using TMB reagent. […] Anti-MrkA antibody was procured from Biorbyt (orb51318) and used at a concentration of 5 μg/mL, and K. pneumoniae antiserum was obtained from abcam (ab20947) and used at a concentration of 5 μg/mL.

[3] = test system: MrkA-expressing K. pneumoniae cells; experiment: Whole-cell ELISA of biotinylated PCC binding; conditions: biotinylated PCC at 5 μM
[4] = test system: K. pneumoniae cells (strain BAA 1705); experiment: Gentamicin protection assay: phagocytosis and opsonophagocytic killing (OPK) by macrophages; format: cell-based, Klebsiella pneumoniae; conditions: macrophages harvested at 6 hrs
Description: FIGS. 7A and 7B show a gentamicin protection assay that evaluates EPI-driven phagocytosis and opsonophagocytic killing (OPK) of K. pneumoniae cells by murine bone-marrow-derived macrophages. FIG. 7A is a flow diagram depicting the assay used to evaluate EPI-driven opsonophagocytic killing (OPK) of K. pneumoniae cells. Briefly, K. pneumoniae cells (strain BAA 1705) opsonized by EPIs (AR-PCCs) and anti-DNP antibodies were incubated with macrophages for 1 or 24 h. Macrophages were lysed, and the lysate was plated to obtain bacterial colonies that were subsequently counted. FIG. 7B is a plot of colony counts for various samples subjected to the OPK assay. […] All EPIs (AR-PCCs) were used at a 5 μM concentration, measurements were conducted in triplicate, and error bars reflect standard deviations. cy(LLFFA) is SEQ ID NO:11.
It also tested whether DNP-conjugated EPIs could promote the opsonophagocytic killing (OPK) of K. pneumoniae by macrophages. This was tested by using an OPK assay. Briefly, K. pneumoniae cells were treated with EPI and then anti-DNP antibody before being exposed to macrophages for either 6 or 24 hours. During this incubation period, macrophages that recognize K. pneumoniae cells will phagocytose them, and phagocytosed bacteria will remain viable for up to 6 hours, but within 24 hours are rendered inviable by OPK. Thus, macrophages were isolated after 6 and 24 hours of incubation with K. pneumoniae, lysed them, and plated and grew the lysate, which yielded bacterial colonies that reflect the phagocytosis (at 6 hrs) or OPK (at 24 hrs) of bacteria.
Given that cy(LLFFF)-DNP (SEQ ID NO:5) recruits antibodies to K. pneumoniae surfaces, it was expected that K. pneumoniae opsonized in this manner would be more susceptible to phagocytosis by macrophages. AR-PCC-driven phagocytosis and OPK were quantified by a gentamicin protection assay, as depicted in FIG. 7A. For this assay, K. pneumoniae cells (strain BAA 1705) were treated with cy(LLFFF)-DNP (SEQ ID NO:5), opsonized by anti-DNP antibodies, and then incubated with murine bone-marrow-derived macrophages (BMDMs). BMDMs were subsequently exposed to a solution containing gentamicin, to which K. pneumoniae strain BAA 1705 is susceptible, to kill any extracellular bacteria. Phagocytosed bacteria remain viable inside BMDMs for at least 1 h, yet are rendered inviable after 24 h by OPK (FIG. 13). Macrophages harvested at 1 h and 24 h were lysed and plated to generate bacterial colonies, which were enumerated to quantify phagocytosis and OPK.
Opsonophagocytic killing (OPK) assays. Klebsiella pneumoniae BAA1705 was treated with DNP-PCCs followed by incubation with anti-DNP antibody, as described above in the “Cell-Based ELISAs” section. These opsonized bacteria were then used to infect BMDMs at a multiplicity of infection of 50 for 0.5 h at 37° C. Bacteria were then washed by using RPMI 1640 Media and BMDMs were left in cell culture medium containing gentamicin (100 μg/ml). After 1 h and 24 h BMDMs were washed to remove gentamicin and intracellular bacteria were harvested by lysing BMDMs in RPMI media containing 0.2% Triton X 100. Bacterial CFUs were enumerated by plating onto LB agar. Bacterial counts at 1 h indicated the degree of opsonization while those at 24 h served as a measure of microbicidal activity of macrophages. For these measurements, anti-MrkA antibody and K. pneumoniae antiserum were used at dilutions of 5 μg/mL each.

[5] = biological target: T1, full-length recombinant MrkA protein (Klebsiella pneumoniae, UniProt P12267); experiment: Sandwich ELISA of PCC binding to full-length MrkA
T1 construct: purchased MyBiosource MBS1248970
Description: The screen yielded 26 hits (Table 2) that were sequenced, scaled up, and tested for binding to full-length recombinant MrkA in solution by single-point sandwich Enzyme-linked immunoassays (ELISAs) (FIG. 8). HPraGly is present before X1 in each peptide and Az4 follows X5 in each peptide.
An alanine scan was performed to establish which residues of cy(LLFFF) (SEQ ID NO:5) contribute most to MrkA binding. In this assay, a sandwich ELISA is used to quantify the affinity of several cy(LLFFF) (SEQ ID NO:5) analogues, in which one residue is substituted with an alanine, towards full-length MrkA protein. The ELISA results in FIG. 4 show lower signal for every alanine-substituted cy(LLFFF) (SEQ ID NO:5) analogue compared to unmodified cy(LLFFF) (SEQ ID NO:5), establishing that the native compound has the highest affinity. […] Thus, these two C-terminal phenylalanine residues (FIG. 3A, arrows in inset) play critical roles in MrkA binding, and are targets for modifications to improve binding. Another important detail of these alanine scan results is a strong dependence of MrkA binding on the residue position, independent of residue type. For example, cy(LLAFF) (SEQ ID NO:9) and cy(LLFFA) (SEQ ID NO:11) have very different binding affinities, despite having the same phenylalanine-to-alanine substitution.
In vitro ELISA assays. ELISA assays for MrkA-binding and epitope selectivity were performed on clear NeutrAvidin Coated High Capacity Plates (ThermoFisher, 15507). The buffer used for all washes and to dissolve all compounds was TBST+0.1% BSA (TBS+0.05% Tween 20+0.1% BSA, pH 7.3) and, unless otherwise stated, steps were conducted at room temperature. Each wash involved a brief 20 s agitation, and all conjugation, blocking, and incubation steps were performed with gentle agitation over the entire stated time period. The general procedure for an ELISA assay was: wash 3×200 μL/well, conjugate with 2 μM of biotinylated compound for 2 h at room temperature (100 μL/well), wash 3×200 μL/well, blocked overnight in 5 wt % milk at 4° C., wash […] with wash buffer, incubate with titrated compound (e.g., MrkA or epitope) for 1 h, […], incubate with primary antibody […] for 1 h (100 μL/well), wash 3×200 μL/well, incubate with 1:2,000 anti-rabbit secondary antibody-horseradish peroxidase conjugate (Cell signaling Technologies, 7074S) for 1 h, 3×200 μL/well, develop with the Microwell Peroxidase Substrate System (2-C) (SeraCare, 5120-0047) using 100 μL/well for 1-40 minutes, and quench using 1 M H2SO4 (aq.) at 100 μL/well. For MrkA binding assays, biotinylated PCCs were conjugated to the well surface, recombinant MrkA with an N-terminal 6×His-SUMO-tag (MyBiosource, MBS1248970) was titrated at the desired concentration, and the primary antibody was His-tag antibody, pAb, Rabbit (Genscript, A00174) at a 1:5,000 dilution. For epitope selectivity assays, biotinylated SynEps were conjugated, DNP-conjugated AR-PCCs were titrated at a desired concentration, and the primary antibody was anti-DNP antibody produced in Rabbit (Sigma-Aldrich, D9656) at a 1:8,000 dilution. […] For binding tests in the context of mouse sera, the “titrated compound” described in the steps above was dispersed in a solution containing the desired concentration of mouse serum.

[6] = Isocratic point of PCCs (C18 prep-scale column elution); format: physicochemical
Text: The efficacy of AR-PCCs in vivo will not only depend on target binding, but also pharmacokinetic (PK) properties, of which clearance pathway is an important parameter. […] Modifications include single- and double-residue substitutions, residue removal, and the addition of non-ionic PEG and charged poly-arginine tags (Ri, where i represents the number of arginine). Results of this optimization are shown in FIG. 4B, which plots IP versus the affinity of the compound to MrkA, relative to cy(LLFFF) (SEQ ID NO:5).
PCC compounds were purified on a Waters Autopurification system, which isolated compounds based on MS peaks corresponding to protonated [M+1H]^+ and [M+2H]^2+, and/or sodium adducts [M+Na]^+ and [M+2Na]^2+. The isocratic points of PCCs were determined based on the elution of the compound from a C18 prep-scale column. Synthetic epitopes were either purified on the Waters Autopurification System, or by semi-preparative HPLC and then using matrix-assisted laser desorption/ionization mass spectroscopy to identify fractions with the desired m/z ratio. The resulting peptides were lyophilized, the yield determined by mass difference or UV-visible absorbance, and resuspended at a concentration of up to 10 mM peptide in DMSO. Peptides were stored at −80° C. before thawing for each use.

[7] = test system: live or heat-killed MRSA cells; experiment: ELISA of PCC-driven SAv-HRP recruitment to MRSA cells; format: cell-based, Staphylococcus aureus; conditions: without or with 0.4 micrograms/mL tunicamycin
Description: FIG. 16A-16B are graphs showing PCC-driven recruitment of streptavidin-horseradish peroxidase (SAv-HRP) conjugate to live MRSA cells (FIG. 16A) or heat-killed MRSA cells (FIG. 16B) cultured under different antibiotic conditions via enzyme-linked Immunosorbent Assays (ELISAs). All tests were conducted by coating the antigen (MRSA cells) onto the wells of 96-well plates and then exposing the wells solutions containing biotinylated PCCs, then SAv-HRP, then HRP substrate followed by detection via absorbance at 450 nm. Absorbance values greater than the “no PCC” background indicate that several PCCs recruit SAv-HRP to either live cells (FIG. 16A) or heat-killed cells (FIG. 16B) cultured either without antibiotic (“−tunicamycin”, first three bars in each set) or with 0.4 micrograms/mL of tunicamycin (“+tunicamycin”, last three bars in each set), which reduces the expression of wall teichoic aids by MRSA. All measurements were conducted in triplicate and error bars reflect standard deviations. […]
The recruitment ability of selected PCCs was assessed by PCC-driven recruitment of streptavidin-horseradish peroxidase (SAv-HRP) conjugate to live MRSA cells (FIG. 16A) or heat-killed MRSA cells (FIG. 16B) cultured under different antibiotic conditions via enzyme-linked Immunosorbent Assays (ELISAs). […]

T1 sequence (P12267 23-202): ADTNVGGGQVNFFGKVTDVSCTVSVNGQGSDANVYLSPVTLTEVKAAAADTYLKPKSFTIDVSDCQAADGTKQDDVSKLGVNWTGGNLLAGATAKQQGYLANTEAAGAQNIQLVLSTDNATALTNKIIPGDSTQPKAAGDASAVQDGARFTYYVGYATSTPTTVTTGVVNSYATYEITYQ

Question: Which results are given for “cy(HNGPT)-DNP: control AR-PCC, DNP-conjugated dummy ligand ([Lys(N3)]HNGPT[Pra]; triazole 1-7; also: DNP-conjugated) [reference compound]”?
Answer: fluorescence intensity of cells (predominantly) ([1]; AR-PCC at 50 μM plus Alexafluor 488 anti-DNP, strain BAA 2146): < 1.0×10^1; 450 nm absorbance, anti-DNP recruitment to cells [2]: Much smaller signals

Question: For “cy(HNGPT): non-MrkA-binding dummy ligand ([Lys(N3)]HNGPT[Pra]; triazole 1-7) [reference compound]”, which “fluorescence of cells (opsonization by anti-DNP)” value ([1]; cy(LLFFF)-DNP 1 or 5 μM, cy(HNGPT) control 50 μM, plus fluorescent anti-DNP) is on record?
Answer: Slightly greater fluorescence

Question: What about the “whole-cell ELISA signal, K. pneumoniae BAA 1705 and BAA 2146” value [3] of the same substance?
Answer: comparably lower signal; also recorded: no or minimal binding above baseline

Question: What about the “CFU at 6 hrs, DNP-conjugated EPI and anti-DNP antibody” value [4] of the same substance?
Answer: did not promote any phagocytosis

Question: What about the “cell counts at 6 hrs, DNP-conjugated EPI without antibody” value [4] of the same substance?
Answer: ~35,000

Question: Which “whole-cell ELISA signal, K. pneumoniae BAA 1705 and BAA 2146” value [3] does the source give for cy(LLFFF)+R6 here?
Answer: similarly high selectivity towards MrkA-expressing cells

Question: And the “binding of MrkA protein in mouse sera” value ([5]; MrkA protein at 250 nM in 10 and 100% mouse sera)?
Answer: binds MrkA protein in the context of sera; also recorded: bound MrkA protein in solutions of 10 and 100% mouse sera, albeit at lower levels versus 0% serum

Question: And the “stronger affinity to MrkA over cy(LLFFF)” value ([5]; ratio of ELISA signals to cy(LLFFF) reference on same plate)?
Answer: 22%

Question: What about the “reduction / improvement in IP versus cy(LLFFF)” value [6] of the same substance?
Answer: ~35%

Question: And the “isocratic point (IP)” value ([6]; elution from C18 prep-scale column)?
Answer: ~40%

Question: Which “SAv-HRP recruitment to MRSA cells” value [7] does the source give for “cy(akkrp) ([Lys(N3)][dA][dK][dK][dR][dP]X; bridge 1-7; not fully specified (residue 7, bridges); printed as cy(akkrp))” here?
Answer: Standout recruiting peptides

Question: With “cy(kpdew): PCC to MRSA peptidoglycan, D-amino acids ([Lys(N3)][dK][dP][dD][dE][dW]X; bridge 1-7; not fully specified (residue 7, bridges); printed as cy(kpdew))” as the substance, how does the “SAv-HRP recruitment to MRSA cells” value [7] read?
Answer: Standout recruiting peptides
